What was measured:
Male Laca mice = assay: Porsolt Forced Swim test (behavioural despair test); type: in vivo
Protocol: Method: Porsolt Forced Swim test (also called behavioural despair test)
Animals are subjected to two trials during which they are force to swim in an acrylic glass cylinder filled with water and from which they cannot escape. The first trial lasts 15 minutes. Then, after 24-hours, a second trial is performed which lasts 5 minutes. The time that the animal spends without moving in the second trial is measured. This immobility time is decreased by antidepressants.
After some time, the mice give up the attempt to escape from the water and subside into immobility. The duration of the immobility is measured. An animal was considered to be immobile whenever it remained floating passively in the water in a slightly hunched but upright position, its nose above the water surface. […] The total immobility period during the 6-min test was recorded with the help of stopwatch.
The immobility period data obtained from tables 1, 2 and 3 is plotted against the dose administered in FIG. 1, FIG. 2 and FIG. 3 respectively, as shown in the drawing accompanying this specification.
Test Procedures: Porsolt Forced Swim test. Rectangular glass jar (25×12×25 cm^3) containing 15 cm of water maintained at 24±1° C.
The immobility period data obtained from Tables 4, 5, 6 and 7 is plotted against the dose administered in FIG. 4, FIG. 5, FIG. 6 and FIG. 7 respectively, as shown in the drawing accompanying this specification.

Norepinephrine = assay: Biological amine levels by HPLC-ECD after 45 min: norepinephrine; type: in vivo, mice
Protocol: (§1) Test Substances: […] Animals: Male Laca mice. Test Procedures: Animals were sacrificed after 45 min of drug administration similar to the time period of behavioral observations. HPLC-ECD detector: Mobile phase—Phosphate buffer: […] • Column—ODS-3 C-18 column (250×4.6 mm I.D.; 5 μm particle size)

Dopamine = assay: Biological amine levels by HPLC-ECD after 45 min: dopamine; type: in vivo, mice
Protocol: as §1

5-hydroxytryptamine = assay: Biological amine levels by HPLC-ECD after 45 min: 5-hydroxytryptamine; type: in vivo, mice
Protocol: as §1

[1] = Safety and tolerability of a single dose in healthy human subjects; type: in vivo; conditions: curcumin 1 gm single dose
Source text: The secondary aim of study was to monitor the safety and tolerability of a single dose of 1 g curcuminoids when administered in 12 healthy human subjects.

rats = conditions: 1.25, 2.5, 5 and 10 mg/kg P.O., chronic treatment 14 days; cited from earlier work
hippocampal neurogenesis = conditions: 10 and 20 mg/kg, P.O., chronically stressed rats; cited from earlier work
mice = conditions: cited from earlier work
[2] = system: serotonin (5-HT) as well as dopamine levels; conditions: mice; cited from earlier work
[3] = system: monoamine oxidase enzymes; conditions: mice; cited from earlier work
[4] = system: AC activity and c-AMP levels; conditions: platelet and various brain regions, CUMS rats; cited from earlier work
[5] = dose 100 mg/kg vs fluoxetine 10 mg/kg
[6] = dose 100 mg/kg, sacrificed after 45 min, n = 5

COc1cc(C=CC(=O)CC(=O)C=Cc2ccc(O)c(OC)c2)ccc1O [Curcumin, 1,7-bis(4-hydroxy-3-methoxyphenyl)-1,6-heptadien-3,5-dione]
Potentiation with sub-effective dose of desipramine (Male Laca mice; 50 mg/kg with desipramine 5 mg/kg): failed to show any potentiation
Potentiated effect with sub-effective dose of tranylcypromine (Male Laca mice; 50 mg/kg with tranylcypromine 5 mg/kg): None
% Decrease in immobility w.r.t saline treated group (Male Laca mice; Table 1, dose 50 mg/kg): 22.55%
Immobility period (in seconds) (Male Laca mice; Table 1, dose 50 mg/kg): 171.8 ± 10.87^ seconds
% Decrease in immobility w.r.t saline treated group (Male Laca mice; Table 2, dose 100 mg/kg): 9.89%
Immobility period (Male Laca mice; Table 2, dose 100 mg/kg): 174.2 ± 15.17 s
% Decrease in immobility w.r.t saline treated group (Male Laca mice; Table 3, dose 200 mg/kg): 31.10%
Immobility period (Male Laca mice; Table 3, dose 200 mg/kg): 133.2 ± 26.82 s
% Decrease in immobility w.r.t saline group (Male Laca mice; Table 4, alone, 50 mg/kg): 12.79%
Immobility period (in seconds) (Male Laca mice; Table 4, alone, 50 mg/kg): 171.8 ± 10.87^ seconds
% Decrease in immobility w.r.t vehicle group (Male Laca mice; Table 5, alone, 50 mg/kg): 24.46%
Immobility period (Male Laca mice; Table 5, alone, 50 mg/kg): 160.33 ± 19.09 s
% Decrease in immobility w.r.t vehicle group (Male Laca mice; Table 6, alone, 50 mg/kg): 15.90%
Immobility period (Male Laca mice; Table 6, alone, 50 mg/kg): 215.50 ± 13.97 s
% Decrease in immobility w.r.t vehicle group (Male Laca mice; Table 7, alone, 50 mg/kg): 4.91%
Immobility period (Male Laca mice; Table 7, alone, 50 mg/kg): 262.25 ± 11.89 s
Norepinephrine % increase w.r.t Control (Norepinephrine; dose 100 mg/kg): 67.90%
Norepinephrine % increase w.r.t Fluoxetine (Norepinephrine; [5]): 19.18%
Norepinephrine (ng/mg tissue) (Norepinephrine; [6]): 4.97 ± 0.33a ng/mg tissue
Dopamine % increase w.r.t Control (Dopamine; dose 100 mg/kg): −20.25%
Dopamine % increase w.r.t Fluoxetine (Dopamine; [5]): −21.77%
Dopamine (ng/mg tissue) (Dopamine; [6]): 4.33 ± 0.58 ng/mg tissue
5-hydroxytryptamine % increase w.r.t Control (5-hydroxytryptamine; dose 100 mg/kg): 6.80%
5-hydroxytryptamine % increase w.r.t Fluoxetine (5-hydroxytryptamine; [5]): −21.77%
5-hydroxytryptamine (ng/mg tissue) (5-hydroxytryptamine; [6]): 4.24 ± 0.56 ng/mg tissue
Tolerability ([1]; all subjects): well tolerated
Adverse events ([1]; entire course of study): no adverse events reported
Immobility time in the forced swim test (rats): reduced the immobility time
Hippocampal neurogenesis (hippocampal neurogenesis): increased hippocampal neurogenesis
Immobility period (mice): inhibited the immobility period
Serotonin (5-HT) and dopamine levels [2]: increases serotonin (5-HT) as well as dopamine levels
Monoamine oxidase enzymes [3]: inhibited the monoamine oxidase enzymes
AC activity and c-AMP levels [4]: enhanced AC activity and c-AMP levels

Reference: patent US9259401B2 (priority 2011, dated 2016)
